pIC50: −log10 of the molar value.
Target: Protein cereblon (Homo sapiens, UniProt Q96SW2)
Assay: Cereblon Binding Assay
Description: The binding to cereblon (CRBN) was determined using the Cereblon Binding Kit (Cisbio, #64BDCRBNPEG) following the manufacturer's instruction. Briefly, serially diluted compounds were incubated with GST-tagged wild-type human CRBN protein, XL665-labelled Thalidomide and Europium Cryptate labelled GST antibody at room temperature for about 3 hours. Time Resolved Fluorescence Resonance Energy Transfer (TR-FRET) measurements were acquired on a CALRIOstar plate reader with MARS data analysis software (BMG Labtech), with the following settings: 665/10 nm and 620/10 nm emission, 60 μs delay and 400 μs integration. The TR-FRET ratio was taken as the 665/620 nm intensity ratio.

Sequence of Protein cereblon (Q96SW2 whole entry): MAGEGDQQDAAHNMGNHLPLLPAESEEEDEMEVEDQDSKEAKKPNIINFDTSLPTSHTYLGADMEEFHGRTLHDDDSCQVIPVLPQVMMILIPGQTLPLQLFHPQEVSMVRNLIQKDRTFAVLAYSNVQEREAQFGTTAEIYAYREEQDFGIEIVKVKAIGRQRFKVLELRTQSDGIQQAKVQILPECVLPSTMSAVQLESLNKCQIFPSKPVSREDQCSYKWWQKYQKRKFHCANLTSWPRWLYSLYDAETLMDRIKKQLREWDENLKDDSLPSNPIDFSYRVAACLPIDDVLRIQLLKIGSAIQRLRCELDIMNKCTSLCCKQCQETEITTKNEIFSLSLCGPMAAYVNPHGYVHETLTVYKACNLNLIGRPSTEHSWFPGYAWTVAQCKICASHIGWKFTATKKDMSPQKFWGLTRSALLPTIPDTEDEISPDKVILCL

| Structure (SMILES) | pIC50 |
| --- | --- |
| O=C1CCC(N2Cc3c(ccc4c3O[C@@H](COCc3ccccc3)CO4)C2=O)C(=O)N1 (some centres not stated) [US20240059711, Compound B9] | 6.24 |
| O=C1CCC(N2Cc3c(ccc4c3O[C@H](COCc3ccccc3)CO4)C2=O)C(=O)N1 (some centres not stated) [US20240059711, Compound B10] | 6.10 |

From BindingDB's records for patent US20240059711 (University of Michigan, 2024)
